# Laboratory results from ChEMBL document CHEMBL5726278, “Cytochrome P450 inhibitors and their method of use” (2017).
# Test: Cyp21 Assay : Cyp21 assay protocol: AD293 cells that stably over-express recombinant CYP-21 were seeded in 96 well plates coated with poly D-lysine (10,000 cell per well) and incubated at 37° C. for 24 hours in Dulbecco's Modified Eagle Medium (DMEM) with Fetal Bovine Serum (FBS) that is stripped of hormones by charcoal treatment. The media is then removed, the cells are washed once with Phosphate buffer saline solution, and 50 μL Dulbecco's Modified Eagle Medium (DMEM) with Fetal Bovine Serum (FBS) that is stripped of hormones by charcoal treatment is added. Compounds of the disclosure are then added to the wells in eight concentration spanning 10 μM to 4.5 nM, and the plates are incubated for an additional 60 minutes at 37° C. 17α-OH Progesterone is then added (1.0 μM) and the plates are incubated for an additional 45 minutes at 37° C. After incubation, 50 uL of the supernatant (medium) is transferred into a fresh plate and 150 uL of an acetonitrile solution containing 200 ng/ml of Telmisartan is added. The sample is mixed and then placed in a centrifuge at 2000 rpm for 5 minutes.
# Conditions: AD293, 24 h
row,SMILES,IC50
1,CS(=O)(=O)N1CCN(c2ccc(/C=C/c3cc(Cl)cc(Cn4ccnc4)c3)cc2)CC1,2200 nM
2,CC(C)S(=O)(=O)N1CCN(c2ccc(/C=C/c3cc(Cl)cc(-c4ccncc4)c3)cc2)CC1,565 nM
3,Fc1cc(/C=C/c2ccc(N3CCN(C4=NCCCO4)CC3)cc2)cc(Cn2ccnc2)c1,1000 nM
4,N=C(N)N1CCN(c2ccc(/C=C/c3cc(F)cc(-c4ccncc4)c3)cc2)CC1,10000 nM
5,O=S(=O)(C1CC1)N1CCN(c2ccc(/C=C/c3cc(Cl)cc(-c4ccncc4)c3)cc2)CC1,416 nM
6,CS(=O)(=O)N1CCN(c2ccc(/C=C/c3cc(F)cc(Cn4ccnc4)c3)cc2)CC1,10000 nM
7,CC(C)S(=O)(=O)N1CCN(c2ccc(/C=C/c3cc(F)cc(Cn4ccnc4)c3)cc2)CC1,700 nM
8,N=C(N)N1CCN(c2ccc(/C=C/c3cc(Cl)cc(Cn4ccnc4)c3)cc2)CC1,10000 nM
9,[C-]#[N+]CS(=O)(=O)N1CCN(c2ccc(/C=C/c3cc(F)cc(Cn4ccnc4)c3)cc2)CC1,10000 nM
10,CS(=O)(=O)N1CCN(c2ccc(/C=C/c3cc(Cl)cc(-c4ccncc4)c3)cc2)CC1,840 nM
11,N=C(N)N1CCN(c2ccc(/C=C/c3cc(F)cc(Cn4ccnc4)c3)cc2)CC1,10000 nM
12,Fc1cc(/C=C/c2ccc(N3CCN(C4=NCCO4)CC3)cc2)cc(Cn2ccnc2)c1,10000 nM
13,Fc1cc(/C=C/c2ccc(N3CCN(C4=NCCO4)CC3)cc2)cc(-c2ccncc2)c1,1200 nM
14,Clc1cc(/C=C/c2ccc(N3CCN(C4=NCCO4)CC3)cc2)cc(Cn2ccnc2)c1,3500 nM
15,Clc1cc(/C=C/c2ccc(N3CCN(C4=NCCO4)CC3)cc2)cc(-c2ccncc2)c1,1200 nM
16,CS(=O)(=O)N1CCN(c2ccc(/C=C/c3cc(F)cc(-c4ccncc4)c3)cc2)CC1,740 nM
17,N=C(N)N1CCN(c2ccc(/C=C/c3cc(Cl)cc(-c4ccncc4)c3)cc2)CC1,10000 nM
